Measured values reported in PubChem BioAssay AID652241 (Broad Institute, 2013).
Records with an inconclusive call do not appear. Active and inactive are the calls of the source.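 The calls were made as follows: active = fitted curve reaches activity 50 in the expected rising direction at or below the top valid tested dose; inconclusive = no clear call, values can overlap the other calls; inactive = activity in the wrong direction, and the rest.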

Molecular target: Virion infectivity factor (Human immunodeficiency virus type 1 group M subtype B (isolate BH10)) + Virion infectivity factor (Human immunodeficiency virus type 1 group M subtype B (isolate BRU/LAI)) + Virion infectivity factor (Human immunodeficiency virus type 1 group M subtype B (isolate PCV12)) + Virion infectivity factor (Human immunodeficiency virus type 1 group M subtype B (isolate HXB2)) (UniProt P69720+P69721+P69722+P69723)
Assay: Vif multimerization inhibitor potency, dose response, imaging, HEK293T, cherry-picks (AID 652241);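 also: imaged cell signal that rises when Vif self-association is disrupted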
Settings: 24 h

Row | Compound | activity, higher = inhibition (at 19.5 µM (top of the series)) | further results
1 | CC(C)(C)NC(=O)CN(Cc1ccc(F)cc1)C(=O)Cn1nnc(-c2ccc(F)cc2)n1 | inactive | –
2 | CCC(C)n1c(-c2cccs2)nc2nc3ccccc3nc21 (stereo not given) | inactive | –
3 | COc1cc(C2C3=C(COC3=O)Oc3cc4c(cc32)OCO4)cc(OC)c1O (stereo not given) | – | AC50: 0.849 µM
4 | O=C(Nc1ccc2oc(-c3ccc4ccccc4c3)nc2c1)c1cccs1 | – | activity, higher = inhibition (at 6.8 µM (top of the series)): inactive
5 | O=C(c1cc(COc2cccc3cccnc23)on1)N1CCC[C@H]1CO | inactive | –
6 | COc1ccc(OC)c(NC(=O)c2cc3ccccc3cc2OC)c1 | – | activity, higher = inhibition (at 6.8 µM (top of the series)): inactive
7 | COc1c2occc2c(OC)c2c(=O)cc(C)oc12 | inactive | –
8 | CCn1cc(CN2CCCC(C(=O)Nc3cccc(-c4cc5ccccc5[nH]4)c3)C2)c(C)n1 (stereo not given) | inactive | –
9 | COc1cccc(NC(=O)CSc2nnc(Cc3ccc(OC)c(OC)c3)o2)c1 | inactive | –
10 | Cc1cc2cc(C#N)c(SCC(=O)Nc3nonc3C)nc2cc1C | – | AC50: 8.45 µM
11 | COc1ccc(S(=O)(=O)Nc2cccc3ccc(O)cc23)cc1 | inactive | –
12 | COc1cc(NC(=O)NCc2ccco2)ccc1-c1ccc(NC(=O)NCc2ccco2)cc1OC | inactive | –
13 | NS(=O)(=O)c1ccc(NC(=O)CCC(=O)N2CCOCC2)cc1 | inactive | –
14 | COc1ccc(S(=O)(=O)Nc2cc3c(C(C)=O)c(C)oc3c3ccccc23)cc1 | – | AC50: 9.23 µM
15 | O=S(=O)(Nn1cnnc1)c1ccccc1 | inactive | –
16 | O=C(CCCn1c(=S)[nH]c2ccccc2c1=O)N1CCN(c2cccc(Cl)c2)CC1 | inactive | –
17 | COc1cc(/C=C/C(=O)OCC(=O)N2CCCc3ccccc32)ccc1O | inactive | –
18 | CSc1ccc(CN(C)CC(=O)NCCc2ccccc2)cc1 | inactive | –
19 | CCOC(=O)C1(Cc2ccccc2)CCN(Cc2csc(C(C)=O)c2)CC1 | inactive | –
20 | CCOC(=O)C1CCCN(C(=O)c2cc(S(=O)(=O)N(C)C)ccc2N2CCCC2)C1 (stereo not given) | inactive | –
21 | Cc1ccc(S(=O)(=O)c2nc(-c3ccccc3Cl)oc2N(C)C2CCN(C)CC2)cc1 | inactive | –
22 | NC(c1csc(Nc2ccc(C(=O)c3ccccc3)cc2)n1)C1CCCCC1 (stereo not given) | – | activity, higher = inhibition (at 6.8 µM (top of the series)): inactive

Row | Compound | activity, higher = inhibition (at 19.5 µM (top of the series)) | further results
23 | COc1ccc(CN(CC(=O)NC2CCCC2)C(=O)CN2C(=O)COc3ccccc32)cc1 | inactive | –
24 | OCC1OC(n2cnc3c(NCc4ccco4)ncnc32)C(O)C1O (stereo not given) | – | activity, higher = inhibition (at 2.1 µM (top of the series)): inactive
25 | Cc1c(NC(=O)c2cc3ccccc3oc2=O)c(=O)n(-c2ccccc2)n1C | inactive | –
26 | S=C(NC1CC1)N1CCc2ccccc2C1 | inactive | –
27 | O=C(O)c1ccc(S(=O)(=O)c2ccc3c(c2)C(=O)N(c2ccc(Br)cc2)C3=O)cc1 | inactive | –
28 | CCOc1cc(/C=C2\CN(CC)C/C(=C\c3ccc(O)c(OCC)c3)C2=O)ccc1O | – | AC50: 7.26 µM
29 | CCC(C)C(=O)Nn1c(C2CC2)nc2cc(OC)c(OC)cc2c1=O (stereo not given) | inactive | –
30 | CCCn1nnc(NC(=O)C(c2ccccc2)c2ccccc2)n1 | inactive | –
31 | COC(=O)c1ccc(NCc2cc(O)ccc2O)cc1 | – | AC50: 5.96 µM
32 | COc1ccc(OCCN2CCC(C(=O)NC(c3ccccn3)c3ccccc3OC)CC2)cc1 (stereo not given) | – | activity, higher = inhibition (at 6.8 µM (top of the series)): inactive
33 | COc1ccc(/C=C/C(=O)c2cc(F)ccc2OC(=O)c2ccccc2OC)cc1OC | – | AC50: 1.33 µM
34 | CN1CCN(C(=S)c2ccc(OCC(=O)Nc3cccc(C(F)(F)F)c3)cc2)CC1 | inactive | –
35 | COc1ccc(-c2ccc3c(N)c(C(=O)c4ccc(OC)c(OC)c4)sc3n2)cc1 | – | AC50: > 19.5 µM (inactive)
36 | CCCCCCOC(=O)C(C#N)c1nc2ccccc2nc1N1CCOCC1 (stereo not given) | inactive | –
37 | Cc1ccc2c(c1)C1CN(C)CCC1N2S(=O)(=O)c1cccc(C(F)(F)F)c1 (stereo not given) | inactive | –
38 | COC(=O)c1cc(Cl)c(NC(=O)c2cc3ccccc3o2)cc1OC | inactive | –
39 | COc1ccc(OC)c(/C(O)=C/C(=O)C(=O)Nc2cc(C)ccc2OC)c1 | inactive | –
40 | CCOc1ccc(CC(=O)Nc2sc(Cc3ccccc3)c(C)c2C(N)=O)cc1OCC | inactive | –
41 | Cc1ccnc(SCC(=O)n2c3c(c4ccccc42)CC(C)CC3)n1 (stereo not given) | inactive | –
42 | O=C(Nc1ccc(-c2nc3ccc(NC(=O)c4cccs4)cc3[nH]2)cc1)c1cccs1 | – | AC50: 3.89 µM
43 | COc1ccc2c(CC(=O)Nc3ccccc3OC)coc2c1 | inactive | –
44 | CCN(C(=O)COc1ccc(C)cc1OC)c1cccc2ccccc12 | inactive | –

Row | Compound | activity, higher = inhibition (at 19.5 µM (top of the series)) | further results
45 | COc1cc(CNCc2ccccc2)c(Br)cc1OC1CCCC1 | inactive | –
46 | Cc1ccc(Nc2nc(N)nc(CSc3nnc(-c4ccncc4)o3)n2)cc1 | inactive | –
47 | CCN1c2ccccc2NC2C1C(C(C)=O)C(=O)N2c1ccc(Cl)cc1 (stereo not given) | inactive | –
48 | O=C(Cn1ncc2c3ccccc3n(Cc3cccc(Cl)c3)c2c1=O)N1CCC2(CC1)OCCO2 | inactive | –
49 | CCn1c(/C=C/c2ccc(F)cc2)nc2ccccc2c1=O | inactive | –
50 | COc1ccc(C(=O)c2sc3nc(C)cc(-c4cccs4)c3c2N)cc1OC | – | activity, higher = inhibition (at 6.8 µM (top of the series)): inactive
51 | CCOc1ncccc1C(=O)OCc1ccccc1 | inactive | –
52 | COc1ccccc1C(C)NC(=O)Cc1ccsc1 (stereo not given) | inactive | –
53 | COc1ccc(-c2cc(C(=O)Nc3cnn(Cc4ccccc4C)c3)no2)cc1OC | – | AC50: 16.3 µM
54 | COc1ccc2nc(N3C(=O)C(O)=C(C(=O)c4ccco4)C3c3ccccc3OC)sc2c1 (stereo not given) | – | AC50: > 19.5 µM (inactive)
55 | CC(Cc1ccc(O)cc1)NCC(O)c1cc(O)cc(O)c1 (stereo not given) | inactive | –
56 | CCN1CCc2c(sc(N)c2C(N)=O)C1 | inactive | –
57 | Cc1ccc(-c2cc(C(=O)NCc3ccccn3)c3ccccc3n2)cc1C | inactive | –
58 | CC(C)OCCCNc1ncnc2c1[nH]c1ccc(F)cc12 | inactive | –
59 | CCOC(=O)c1nc(Nc2ccc(C(=O)OC)cc2)c2ccccc2n1 | inactive | –
60 | CCOC(=O)c1c(NC(=O)CCC(=O)N2CCOCC2)sc2c1CC(C)(C)OC2 | inactive | –
61 | CC1Cc2ccccc2N1C(=O)COC(=O)c1ccccc1NCCO (stereo not given) | inactive | –
62 | COc1ccc(CC(=O)OCC(=O)NCc2ccc(Cl)cc2)cc1 | inactive | –
63 | Cn1c(=O)[nH]c(=O)c2c1nc([N+](=O)[O-])n2Cc1ccccc1 | – | AC50: 5.03 µM
64 | COc1ccc(Br)cc1C(=O)Nc1ccc(N2CCCC2)cc1 | inactive | –
65 | COc1cc(-c2cc(=O)c3c(O)c(OC)c(OC)cc3o2)cc(OC)c1O | inactive | –
66 | CCOC(=O)Nc1ccc(NCc2ccc(F)cc2)nc1N | inactive | –

Row | Compound | activity, higher = inhibition (at 19.5 µM (top of the series)) | further results
67 | CN1CCc2c(sc(NC(=O)c3cc(Cl)sc3Cl)c2C(N)=O)C1 | inactive | –
68 | COc1ccc(CNC(=O)COC(=O)c2cc(S(=O)(=O)N3CCOCC3)ccc2O)cc1OC | inactive | –
69 | Cc1cc(Cl)n2c(nc3cc(F)c(F)cc32)c1C#N | – | AC50: 5.68 µM
70 | COc1ccc(-c2nc(CS(=O)(=O)CC(=O)NCCc3ccccc3)c(C)o2)cc1 | – | activity, higher = inhibition (at 6.8 µM (top of the series)): inactive
71 | COc1ccc(CNC(=O)CN2C(=O)NC(c3ccccc3)(c3ccccc3)C2=O)cc1 | inactive | –
72 | Cc1ccc(NC(=O)/C=C/C(=O)O)c(NC(=O)c2ccccc2)c1 | inactive | –
73 | Cc1nc(SCC(=O)N2CCCC2=O)nc(C)c1C | inactive | –
74 | CC1CN(S(=O)(=O)c2cccc(C(=O)N3CCC(C(N)=O)CC3)c2)CC(C)O1 (stereo not given) | inactive | –
75 | CCN(CC)C(=O)c1sc2nc(-c3cccs3)cc(-c3cccs3)c2c1N | – | AC50: > 19.5 µM (inactive)
76 | COc1ccc(CNC(=O)Nc2cccs2)cc1OC | inactive | –
77 | C=CCNc1ncnc2c1ncn2C1OC(CO)C(O)C1O (stereo not given) | – | AC50: 5.47 µM
78 | COc1cc(NC(=O)c2ccc(-c3csc(C)n3)cc2)c(OC)cc1Cl | – | AC50: 10.3 µM
79 | O=C(CCc1ccccc1)Nc1ccccc1 | inactive | –
80 | COc1cccc(N2CCN(C(=O)c3ccc(CS(=O)c4ccc(C)cc4)o3)CC2)c1 (stereo not given) | – | AC50: 12.9 µM
81 | Cc1nnc2ccc(-c3ccc(NS(=O)(=O)c4ccc(F)cc4F)cc3)nn12 | – | AC50: > 19.5 µM (inactive)
82 | CCN1C(=O)NC(c2ccccc2)C1=O (stereo not given) | inactive | –
83 | O=C(NCc1cccnc1)NC1(C(F)(F)F)Oc2ccc(Cl)cc2O1 (stereo not given) | – | AC50: 9.05 µM
84 | CC(C)CC(NC(=O)C1CCCCC1)C(=O)N1CCC2(CC1)OCCO2 (stereo not given) | inactive | –
85 | Cc1cc(OCC(C)C)ccc1/C(O)=C1/C(=O)C(=O)N(Cc2cccnc2)C1c1ccncc1 (stereo not given) | inactive | –
